# Assay results as given in patent US20240293587A1, “CXCR4-TARGETED DIAGNOSTIC AND THERAPEUTIC AGENTS WITH REDUCED SPECIES SELECTIVITY” (TECHNISCHE UNIVERSITÄT MÜNCHEN, priority 2018, published 2024).
# Starred links: 1 amine or outer side, 2 acyl side, 3 side chain; linkers in the order of their positions; H or OH if unused. Non-standard residues stand in square brackets, D forms with d. Residues, ends and D or L forms follow the SMILES beside them. Groups on a side chain read outwards from the residue. *: point of attachment. dAla(N-(6-guanidinohexyl)) = C[C@@H](NCCCCCCNC(=N)N)C(=O)O; DOTA = O=C(O)CN1CCN(CC(=O)O)CCN(CC(=O)*)CCN(CC(=O)O)CC1; X2 = CC(=O)NCCCCNC(=N)NCCCCCCN([C@H](C)C(=O)[*:2])[*:1]; 2Nal = N[C@@H](Cc1ccc2ccccc2c1)C(=O)O; dNMeOrn = CN[C@H](CCCN)C(=O)O; 4Amb = NCc1ccc(C(=O)O)cc1
# Experiments:
# human CXCR4 (hCXCR4) [1] = molecular target: T1, human CXCR4 (hCXCR4) (Homo sapiens (Human), UniProt P61073); experiment: Competition binding on Jurkat cells with [125I]FC-131 as radioligand; settings: [125I]FC-131 radioligand, mean ± SD
# Procedure: (§1) For the determination of hCXCR4-affinity, competition binding experiments were performed using Jurkat cells and [^125I]FC131 or [^125I]R1 as radioligand. Affinity to mCXCR4 and rCXCR4 was determined using Eμ-Myc1080 mouse B-cell lyphoma cells ^57 or C6 rat glioma cells, respectively, and [^125I]R1 as the radioligand.
# (§2) For IC50 determination using Jurkat or Eμ-Myc1080 cells, samples containing 2×10^5 cells (or 4×10^5 cells; exact cell number used in the respective evaluations is given in the results section) in Hank's balanced salt solution (HBSS)/1% Bovine Serum Albumin (BSA) were incubated with 100.000 cpm of the respective radioligand (approx. 0.1 nM) in the presence of increasing concentrations (10^−11 to 10^−5 M) of the respective peptide of interest (n=3 per concentration). The total sample volume was 250 μL. After incubation at room temperature (RT) for 120 min with gentle agitation (200 mot/min), the tubes were centrifuged (5 min, 450g, Megafuge 1.0, Heraeus Thermo Scientific) and the supernatant was carefully removed. After washing twice with 400 μL of cold HBSS, the amount of cell-bound radioligand was quantified using a […]-counter.
# (§3) IC50 values were calculated using PRISM 6 software (Graph Pad Software, San Diego, CA) using a three-parameter sigmoidal dose response curve fit.
# mouse CXCR4 (mCXCR4) = mouse CXCR4 (mCXCR4) (Mus musculus (Mouse), UniProt P70658); experiment: Competition binding on Eμ-Myc1080 mouse B-cell lymphoma cells with [125I]R1 as radioligand; settings: 200.000 cells/sample, [125I]R1 radioligand, mean ± SD
# Procedure: as §1, §2, §3
# human CXCR4 (hCXCR4) [2] = molecular target: T1, human CXCR4 (hCXCR4); experiment: Competition binding on Jurkat cells with [125I]R1 as radioligand; settings: 200.000 cells/sample, [125I]R1 radioligand, mean ± SD
# Procedure: as §1, §2, §3
# murine receptor (mCXCR4) = murine receptor (mCXCR4) (Mus musculus (Mouse), UniProt P70658); settings: background statement; cited from earlier work
# Chain of murine receptor (mCXCR4) (P70658 whole entry): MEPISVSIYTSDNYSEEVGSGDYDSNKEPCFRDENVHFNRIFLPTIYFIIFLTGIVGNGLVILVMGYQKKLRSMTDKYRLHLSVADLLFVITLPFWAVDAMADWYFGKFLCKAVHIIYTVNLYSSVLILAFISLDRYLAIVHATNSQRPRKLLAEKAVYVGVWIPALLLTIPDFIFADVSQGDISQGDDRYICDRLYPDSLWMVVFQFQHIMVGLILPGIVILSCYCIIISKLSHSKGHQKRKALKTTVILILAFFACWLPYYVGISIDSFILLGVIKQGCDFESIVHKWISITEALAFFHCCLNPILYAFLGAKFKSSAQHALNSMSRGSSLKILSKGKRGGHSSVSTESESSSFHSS
# T1 sequence (P61073 whole entry): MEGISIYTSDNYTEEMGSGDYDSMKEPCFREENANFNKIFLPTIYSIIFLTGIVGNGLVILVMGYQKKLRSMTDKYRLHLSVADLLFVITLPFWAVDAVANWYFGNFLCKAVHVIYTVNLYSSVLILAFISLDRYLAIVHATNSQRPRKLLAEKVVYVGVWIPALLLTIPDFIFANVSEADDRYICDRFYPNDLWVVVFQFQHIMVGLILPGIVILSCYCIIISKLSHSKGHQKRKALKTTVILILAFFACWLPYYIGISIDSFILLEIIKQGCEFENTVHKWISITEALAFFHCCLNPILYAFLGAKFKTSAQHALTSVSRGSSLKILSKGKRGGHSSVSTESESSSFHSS
# Chain of mouse CXCR4 (mCXCR4) (P70658 whole entry): as the sequence (P70658 whole entry) above
Compound,IC50 (human CXCR4 (hCXCR4) [1]; 400.000 cells/sample) [nM],IC50 (mouse CXCR4 (mCXCR4)) [nM],IC50 (human CXCR4 (hCXCR4) [2]) [nM],also measured
"CC(=O)NCCCCNC(=N)NCCCCCCN1C(=O)[C@@H](Cc2ccc(O)cc2)NC(=O)CNC(=O)[C@H](Cc2ccc3ccccc3c2)NC(=O)[C@H](CCCNC(=N)N)NC(=O)[C@H]1C [P3, c(y-(NHex-Gua-But-Ac)a-R-Nal-G)] (cyclo([dY][X2]R[2Nal]G))",,,,IC50 (human CXCR4 (hCXCR4) [1]; 200.000 cells/sample): 2.1 ± 0.5 nM
"C[C@@H]1C(=O)N[C@@H](CCCNC(=N)N)C(=O)N[C@@H](Cc2ccc3ccccc3c2)C(=O)NCC(=O)N[C@H](Cc2ccc(O)cc2)C(=O)N1CCCCCCNC(=N)NCCCCCCNC(=O)CN1CCN(CC(=O)O)CCN(CC(=O)O)CCN(CC(=O)O)CC1 (natLu complex, metal not drawn) [P5d]",,17 ± 3.3,,
cyclo(D-3-iodo-Tyr^1-D-[NMe]Orn^2(AMBS-DOTA)-Arg^3-Nal^4-Gly^5) [[^177Lu/^90Y]pentixather],,,,affinity to mCXCR4 (in words) (murine receptor (mCXCR4)): virtually no affinity
"C[C@@H]1C(=O)N[C@@H](CCCNC(=N)N)C(=O)N[C@@H](Cc2ccc3ccccc3c2)C(=O)NCC(=O)N[C@H](Cc2ccc(O)cc2)C(=O)N1CCCCCCNC(=N)NCCCCCCNC(=O)CN1CCN(CC(=O)O)CCN(CC(=O)O)CCN(CC(=O)O)CC1 (natGa complex, metal not drawn) [P5c]",,12.7 ± 4.6,13 ± 2,
"C[C@@H]1C(=O)N[C@@H](CCCNC(=N)N)C(=O)N[C@@H](Cc2ccc3ccccc3c2)C(=O)NCC(=O)N[C@H](Cc2ccc(O)cc2)C(=O)N1CCCCCCNC(=N)NCCCCCCNC(=O)CCCCC[N+]1=C(/C=C/C=C/C=C2/N(C)c3ccc(S(=O)(=O)O)cc3C2(C)C)C(C)(C)c2cc(S(=O)(=O)[O-])ccc21 [P5e, Sulfo2-Cy5-Hex-CPCR4.3]",,156 ± 7,156 ± 11,
"C[C@@H]1C(=O)N[C@@H](CCCNC(=N)N)C(=O)N[C@@H](Cc2ccc3ccccc3c2)C(=O)NCC(=O)N[C@H](Cc2ccc(O)cc2)C(=O)N1CCCCCCNC(=N)NCCCCCCNC(=O)CCCCCN1/C(=C/C=C/C=C/C2=[N+](CCCCCC(=O)NCCCCCCNC(=N)NCCCCCCN3C(=O)[C@@H](Cc4ccc(O)cc4)NC(=O)CNC(=O)[C@H](Cc4ccc5ccccc5c4)NC(=O)[C@H](CCCNC(=N)N)NC(=O)[C@H]3C)c3ccc(S(=O)(=O)[O-])cc3C2(C)C)C(C)(C)c2cc(S(=O)(=O)O)ccc21 [P5f, Sulfo2-Cy5(Hex-CPCR4.3)2]",,136 ± 26,115 ± 39,
"CN1C(=O)[C@@H](Cc2ccc(O)cc2)NC(=O)CNC(=O)[C@H](Cc2ccc3ccccc3c2)NC(=O)[C@H](CCCN=C(N)N)NC(=O)[C@H]1CCCNC(=O)c1ccc(CNC(=O)CN2CCN(CC(=O)[O-])CCN(CC(=O)[O-])CCN(CC(=O)[O-])CC2)cc1.[68Ga+3] [[^68Ga]pentixafor, cyclo(D-Tyr^1-D-[NMe]Orn^2(AMBS-DOTA)-Arg^3-Nal^4-Gly^5)] (cyclo([2Nal]G[dY][dNMeOrn]([4Amb-DOTA])R))",,,,affinity to mCXCR4 (in words) (murine receptor (mCXCR4)): virtually no affinity

# Continued, in another order:
IC50 (human CXCR4 (hCXCR4) [1]; 400.000 cells/sample) [nM],IC50 (mouse CXCR4 (mCXCR4)) [nM],IC50 (human CXCR4 (hCXCR4) [2]) [nM],Compound,also measured
31 ± 3,63 ± 19,64 ± 29,cyclo[ya′(hexyluanidino)RNalc(-CH2—CO—NH—CH2-(m-aryl)-CH2—NH-^natGa-DOTA)] [Pc5b],
,63 ± 23,91 ± 49,"C[C@@H]1C(=O)N[C@@H](CCCNC(=N)N)C(=O)N[C@@H](Cc2ccc3ccccc3c2)C(=O)NCC(=O)N[C@H](Cc2ccc(O)cc2)C(=O)N1CCCCCCNC(=N)NCCCCCCNC(=O)CCOCCOCCOCCOCCNC(=O)CCCCC[N+]1=C(/C=C/C=C/C=C2/N(C)c3ccc(S(=O)(=O)O)cc3C2(C)C)C(C)(C)c2cc(S(=O)(=O)[O-])ccc21 [P5g, Sulfo2-Cy5-PEG4-Hex-CPCR4.3]",IC50 (human CXCR4 (hCXCR4) [1]; 200.000 cells/sample): 40 ± 5 nM
51 ± 4,,,cyclo[ya′(hexylguanidino)RNalc(-CH2—CO—NH—CH2-(m-aryl)-CH2—NH-^natLu-DOTA)] [Pc5c],
78 ± 5,,,cyclo[ya′(hexylguanidino)RNalc(-CH2—CO—NH—CH2-(m-aryl)-CH2—NH-^natCu-DOTA)] [Pc5d],
35 ± 2,,,"C[C@@H]1C(=O)N[C@@H](CCCNC(=N)N)C(=O)N[C@@H](Cc2ccc3ccccc3c2)C(=O)N[C@H](CS)C(=O)N[C@H](Cc2ccc(O)cc2)C(=O)N1CCCCCCNC(=N)N [Pc0, Cyclo(ya′(hexylguanidino)Rnalc)] (cyclo([2Nal][dC][dY][dAla(N-(6-guanidinohexyl))]R))",
